For orientation: clearance means the rate of elimination divided by the concentration. As usually defined, the Cmax is the maximum level reached in the sampled fluid or tissue.

The text below walks through data of ChEMBL document CHEMBL4251695, “Data Sets Representative of the Structures and Experimental Properties of FDA-Approved Drugs” (ACS Med Chem Lett, 2018).

Format in all cases: ADME, organism-based
Conditions in all cases: in vivo

The species named for one series is Homo sapiens. Briefly: Half life in human.
Series [1] can be described thus: Clearance in human.
Series [2] is described as follows: Cmax in human.

In turn, `COc1cc2c(cc1OC)[C@@H](Cc1cc(OC)c(OC)c(OC)c1)[N+](C)(CCCOC(=O)CC/C=C/CCC(=O)OCCC[N+]1(C)CCc3cc(OC)c(OC)cc3[C@H]1Cc1cc(OC)c(OC)c(OC)c1)CC2` (some centres undefined) registered a t1/2 in the series filed under Homo sapiens of 2 min. In series [1], `CCCCC[C@H](O)/C=C/[C@H]1[C@H](O)CC(=O)[C@@H]1CCCCCCC(=O)O` [ALPROSTADIL] gave a clearance of 115000 mL/min. In series [2], `CC(C)C[C@H]1C(=O)N2CCC[C@H]2[C@]2(O)O[C@](NC(=O)[C@@H]3C=C4c5cccc6[nH]c(Br)c(c56)C[C@H]4N(C)C3)(C(C)C)C(=O)N12` [BROMOCRIPTINE] came in with a Cmax of 0.711 nM. `Nc1ccn([C@@H]2O[C@H](CO)[C@@H](O)[C@@H]2O)c(=O)n1` [CYTARABINE] showed a clearance in series [1] of 0.233 mL/min.
